Reference: paper PMC11491487 (Nature Communications, 2024)
“And” between values parts separate entries of the source, which are not always exact repeats. Identical values can stand only once.

Tests used:
[1] = system: Drosophila melanogaster RyR G4915E; assay: Bioassay of gene-edited Drosophila melanogaster (feeding, mortality after 24 h); type: in vivo; settings: for death rate: 24 h
[2] = molecular target: T1, rRyR1 R4563K (Oryctolagus cuniculus, UniProt P11716, R4563K); assay: time-lapse [Ca2+]ER fluorescence assay, HEK293 cells; type: cell-based, rabbit; settings: n = 3
T1 construct: expressed in transfected cells

[3] = molecular target: Sf RyR_I4734M/G4891E (Spodoptera frugiperda, UniProt A0A4P8L6R5, G4891E/I4734M); assay: cell-based
[4] = molecular target: T2, chiRyR-I4657M/G4819E (Oryctolagus cuniculus, UniProt P11716, C4657M/F4564Y/G4819E/L4792S/R4563K); assay: cell-based; parameters: species or system rabbit
[5] = molecular target: T3, chiRyR (Oryctolagus cuniculus, UniProt P11716, C4657I/F4564Y/L4792S/R4563K); assay: cell-based; parameters: species or system rabbit
[6] = system: Drosophila melanogaster RyR M4758I; assay: Bioassay of gene-edited Drosophila melanogaster (feeding, mortality after 24 h); type: in vivo; settings: for death rate: 24 h
[7] = solubility comparison; type: physicochemical
[8] = molecular target: T2, chiRyR-I4657M/G4819E; assay: biochemical; type: biochemical, rabbit
[9] = molecular target: T4, rRyR1 C4657I (Oryctolagus cuniculus, UniProt P11716, C4657I); assay: time-lapse [Ca2+]ER fluorescence assay, HEK293 cells; type: cell-based, rabbit; settings: n = 3
T4 construct: expressed in transfected cells

[10] = molecular target: T5, rRyR1 F4564Y (Oryctolagus cuniculus, UniProt P11716, F4564Y); assay: as above; type: cell-based, rabbit; settings: n = 3
T5 construct: expressed in transfected cells

[11] = molecular target: T6, rRyR1 L4792S (Oryctolagus cuniculus, UniProt P11716, L4792S); assay: as above; type: cell-based, rabbit; settings: n = 3
T6 construct: expressed in transfected cells

[12] = molecular target: Sf RyR (Spodoptera frugiperda, UniProt A0A4P8L6R5); assay: as above; type: cell-based
[13] = molecular target: rRyR1 (Oryctolagus cuniculus, UniProt P11716); assay: as above; type: cell-based, rabbit
[14] = system: Spodoptera frugiperda; parameters: method as in PMID 31157506; settings: in vivo; cited from earlier work
[15] = molecular target: T3, chiRyR; assay: biochemical; type: biochemical, rabbit

## CNC(=O)c1cc(Cl)cc(C)c1NC(=O)c1cc(Br)nn1-c1ncccc1Cl [CHL, chlorantraniliprole]
[1]; 24 h feeding, n = 30, heterozygous G4915E/G
  LD50: 1.6 mM
[1]; CHL 1.000 uM
  death rate: 0%
[1]; CHL 3.333 uM
  death rate: 0%
[1]; CHL 10.000 uM
  death rate: 0% and 10%
[1]; CHL 33.333 uM
  death rate: 10%
[1]; CHL 100.000 uM
  death rate: 10% and 20%
[2]
  EC50: 62.6 nM
[3]
  EC50: 9100 nM
[3]; CHL 0.1 uM
  F/F0: 0.9609 and 0.9591 and 1.0034
[3]; CHL 1 uM
  F/F0: 0.987 and 0.977 and 0.9858
[3]; CHL 10 uM
  F/F0: 0.5363 and 0.6213 and 0.7359
[3]; CHL 50 uM
  F/F0: 0.3469 and 0.3845 and 0.4143
[3]; CHL 100 uM
  F/F0: 0.3178 and 0.3119 and 0.3455
[3]; CHL 150 uM
  F/F0: 0.3313 and 0.3179 and 0.3624
[3]; CHL 200 uM
  F/F0: 0.3347 and 0.3244 and 0.3692
[4]; CHL 1e-5 uM
  F/F0: 0.8891 and 0.8803 and 0.8832
[4]; CHL 0.0001 uM
  F/F0: 0.8817 and 0.9289 and 0.9243
[4]; CHL 0.001 uM
  F/F0: 0.9674 and 0.9402 and 0.9553
[4]; CHL 0.005 uM
  F/F0: 0.9942 and 0.938 and 0.9411
[4]; CHL 0.01 uM
  F/F0: 0.9479 and 0.955 and 0.9174
[4]; CHL 0.1 uM
  F/F0: 0.9465 and 0.9355 and 0.9097
[4]; CHL 0.3 uM
  F/F0: 0.9306 and 0.9655 and 0.9439
[4]; CHL 0.5 uM
  F/F0: 0.9145 and 0.8971 and 0.9399
[4]; CHL 1 uM
  F/F0: 0.9091 and 0.8544 and 0.9005
[4]; CHL 3 uM
  F/F0: 0.8328 and 0.8713 and 0.8682
[4]; CHL 10 uM
  F/F0: 0.808 and 0.819 and 0.7565
[4]; CHL 30 uM
  F/F0: 0.7257 and 0.6335 and 0.5826
[4]; CHL 50 uM
  F/F0: 0.6512 and 0.5528 and 0.5088
[4]; CHL 100 uM
  F/F0: 0.5781 and 0.4912
[4]; CHL 200 uM
  F/F0: 0.6274 and 0.5179
[4]; CHL 500 uM
  F/F0: 0.5379 and 0.5182
[4]; EC50, diamide insecticides, n = 3
  EC50: 10300 nM and 14600 nM
[5]
  EC50: 1.6 nM
[5]; CHL 1e-5 uM
  F/F0: 0.9477 and 0.9176 and 0.9126
[5]; CHL 2.5e-5 uM
  F/F0: 0.9199 and 0.9229 and 0.931
[5]; CHL 5e-5 uM
  F/F0: 0.8883 and 0.929 and 0.9092
[5]; CHL 0.0001 uM
  F/F0: 0.9049 and 0.9411 and 0.8175
[5]; CHL 0.00025 uM
  F/F0: 0.8945 and 0.8973 and 0.8398
[5]; CHL 0.0005 uM
  F/F0: 0.6917 and 0.6365 and 0.6304
[5]; CHL 0.0025 uM
  F/F0: 0.5122 and 0.4849 and 0.4622
[5]; CHL 0.005 uM
  F/F0: 0.6454 and 0.5393 and 0.4867
[5]; CHL 0.01 uM
  F/F0: 0.4912 and 0.5046 and 0.4772
[5]; CHL 0.025 uM
  F/F0: 0.5158 and 0.4751 and 0.4992
[5]; CHL 0.05 uM
  F/F0: 0.5374 and 0.5173 and 0.549
[5]; CHL 0.1 uM
  F/F0: 0.4915 and 0.5257 and 0.4507
[5]; CHL 1 uM
  F/F0: 0.5356 and 0.5199 and 0.5646
[5]; CHL 3 uM
  F/F0: 0.5195 and 0.4435 and 0.4631
[5]; CHL 10 uM
  F/F0: 0.5287 and 0.4905 and 0.48
[5]; CHL 30 uM
  F/F0: 0.5354 and 0.4682 and 0.4761
[5]; CHL 50 uM
  F/F0: 0.5799 and 0.4954 and 0.5274
[6]; 24 h feeding, n = 30
  LD50: 127.9 nM
[6]; CHL 0.010 uM
  death rate: 0%
[6]; CHL 0.033 uM
  death rate: 0% and 10%
[6]; CHL 0.100 uM
  death rate: 60% and 40%
[6]; CHL 0.333 uM
  death rate: 80% and 70%
[6]; CHL 1.000 uM
  death rate: 100% and 90%
[6]; CHL 3.333 uM
  death rate: 100%
[6]; CHL 10.000 uM
  death rate: 100%
[7]
  relative solubility: more soluble than TET
[8]
  EC50: 14700 ± 1600 nM
[8]; CHL 10.000 uM
  [3H]ryanodine binding (B/Bmax): 0.114 and 0.077 and 0.068 and 0.062
[8]; CHL 100.000 uM
  [3H]ryanodine binding (B/Bmax): 0.193 and 0.240 and 0.178 and 0.209
[9]
  EC50: 167 nM
[10]
  EC50: 556 nM
[11]
  EC50: 44.8 nM
[12]; CHL 1e-5 uM
  F/F0: 0.9606 and 0.9752 and 0.9813
[12]; CHL 0.001 uM
  F/F0: 1.004 and 1.002 and 1.001
[12]; CHL 0.005 uM
  F/F0: 0.7229 and 0.7431 and 0.7294
[12]; CHL 0.01 uM
  F/F0: 0.3097 and 0.3094 and 0.2868
[12]; CHL 0.1 uM
  F/F0: 0.2582 and 0.2663 and 0.2776
[12]; CHL 0.5 uM
  F/F0: 0.268 and 0.2944 and 0.2596
[12]; CHL 1 uM
  F/F0: 0.2734 and 0.2934 and 0.2867
[12]; CHL 10 uM
  F/F0: 0.2774 and 0.2809 and 0.2932
[12]; CHL 50 uM
  F/F0: 0.2939 and 0.2698 and 0.3129
[12]; n = 3, read-out: EC50
  EC50: 5.5 nM
[13]
  EC50: 4900 nM
[14]
  fold decreased sensitivity: 225 fold
[15]
  EC50: 1.7 ± 0.3 nM
[15]; CHL 0.010 uM
  [3H]ryanodine binding (B/Bmax): 0.191 and 0.230 and 0.144 and 0.262
[15]; CHL 0.100 uM
  [3H]ryanodine binding (B/Bmax): 0.168 and 0.180 and 0.215
[15]; CHL 1.000 uM
  [3H]ryanodine binding (B/Bmax): 0.199 and 0.219 and 0.215 and 0.312
[15]; CHL 10.000 uM
  [3H]ryanodine binding (B/Bmax): 0.246 and 0.234 and 0.250 and 0.215
[15]; CHL 100.000 uM
  [3H]ryanodine binding (B/Bmax): 0.207 and 0.242 and 0.223 and 0.191
